System: L1210
Experiment: The compound was tested in vitro for growth inhibitory activity against murine leukemia L1210 cells
Format: functional, cell-based
Details: Mus musculus

Row | IC50 | Structure (SMILES)
1 | 6 µM | CCN(CC)C[C@H]1CO[C@H]2c3nc4c5ccccc5n(C)c4nc3N(C)C(=O)N2[C@@H](CN(CC)CC)O1
2 | 17 µM | CCN(CC)C[C@H]1CO[C@H]2c3nc4c5ccccc5n(C)c4nc3NC(=O)N2[C@@H](CN(CC)CC)O1
3 | 4 µM | CN1CCC(N(C)C[C@H]2CO[C@H]3c4nc5c6ccccc6n(C)c5nc4N(C)C(=O)N3[C@@H](CN(C)C3CCN(C)CC3)O2)CC1
4 | 20 µM | CN1CCN(C[C@H]2CO[C@H]3c4nc5c6ccccc6n(C)c5nc4N(C)C(=O)N3[C@@H](CN3CCN(C)CC3)O2)CC1
5 | 24 µM | CN(C)CCCN(C)C[C@H]1CO[C@H]2c3nc4c5ccccc5n(C)c4nc3N(C)C(=O)N2[C@@H](CN(C)CCCN(C)C)O1

Row | Structure (SMILES) | IC50
6 | Cc1c2ccncc2c(C)c2c1[nH]c1ccccc12 [ELLIPTECINE] | 0.5 µM
